This passage reports IC50 results from patent US10183952B2, “Thienopyrroles as histone demethylase inhibitors” (ISTITUTO EUROPEO DI ONCOLOGIA S.R.L., priority 2014, dated 2019).

For this assay, the target named is human recombinant KDM1A/CoREST protein (Homo sapiens, UniProt O60341). The experiment in a line: Assay of enzyme inhibition of KDM1A (LSD1), TR-FRET. In general terms: Time-resolved FRET reads energy transfer from a long-lived donor to a nearby acceptor.

Structures can show the parent of a compound that is named as a salt.

Method: The intensity of the light emission is proportional to the level of biotinylated reaction product. The complex of human recombinant KDM1A/CoREST protein was produced in E. coli as separate proteins and co-purified as previously described.
Demethylase reaction was started by the addition of 50 nM histone H3K4 monomethylated.
The resulting mixture was incubated in the dark for 1 h at RT.
The IC50 was calculated using GraphPad Software.

In the case of `CN1CCC(Oc2ccc(OCc3ccc(NC(=O)c4cc5sccc5n4C)cc3)cc2)CC1` [Example 23, 4-methyl-N-[4-[[4-[(1-methyl-4-piperidyl)oxy]phenoxy]methyl]phenyl]thieno[3,2-b]pyrrole-5-carboxamide], the IC50 is below 10 µM.

`Cn1c(C(=O)Nc2ccccc2COc2cccc(OC3CCNCC3)c2)cc2ccsc21` [Example 64, 6-Methyl-N-[2-[[3-(4-piperidyloxy)phenoxy]methyl]phenyl]thieno[2,3-b]pyrrole-5-carboxamide]: the IC50 is below 10 µM.

Turning to `COCc1cccc(NC(=O)c2cc3sccc3n2C)c1COc1ccc(OC[C@@H]2CCNC2)cc1` [Example 42, N-[3-(methoxymethyl)-2-[[4-[[(3R)-pyrrolidin-3-yl]methoxy]phenoxy]methyl]phenyl]-4-methyl-thieno[3,2-b]pyrrole-5-carboxamide hydrochloride], the IC50 was below 10 µM.

As for `CCn1c(C(=O)Nc2cccc(COC)c2)cc2sccc21` [Example 45, 4-ethyl-N-[3-(methoxymethyl)phenyl]thieno[3,2-b]pyrrole-5-carboxamide], the IC50 is below 10 µM.

Take `Cn1c(C(=O)Nc2ccccc2COc2ccc(O[C@@H]3C[C@H]4CC[C@@H](C3)N4)cc2)cc2sccc21` [Example 24, N-[2-[[4-[[(1S,5R)-8-azabicyclo[3.2.1]octan-3-yl]oxy]phenoxy]methyl]phenyl]-4-methyl-thieno[3,2-b]pyrrole-5-carboxamide]: the IC50 is below 10 µM.

As to `Cn1c(C(=O)Nc2ccccc2COc2ccc(NC3CCNCC3)cc2)cc2sccc21` [Example 39, 4-methyl-N-[2-[[4-(4-piperidylamino)phenoxy]methyl]phenyl]thieno[3,2-b]pyrrole-5-carboxamide; 2,2,2-trifluoroacetic acid], the IC50 was below 10 µM.

For `Cn1c(C(=O)Nc2cccc(COc3ccc(O[C@H]4CC[C@@H](N)CC4)cc3)c2)cc2sccc21` [Example 34, N-[3-[[4-(cis-4-aminocyclohexoxy)phenoxy]methyl]phenyl]-4-methyl-thieno[3,2-b]pyrrole-5-carboxamide], the IC50 was below 10 µM.

With `Cn1c(C(=O)Nc2cccc(COc3ccc(OCC4CNC4)cc3)c2)cc2sccc21` [Example 30, N-[3-[[4-(azetidin-3-ylmethoxy)phenoxy]methyl]phenyl]-4-methyl-thieno[3,2-b]pyrrole-5-carboxamide], the IC50 is below 10 µM.

For `Cn1c(C(=O)Nc2cccc(COc3ccc(OCC4CCNCC4)cc3)c2)cc2sccc21` [Example 26, 4-methyl-N-[3-[[4-(4-piperidylmethoxy)phenoxy]methyl]phenyl]thieno[3,2-b]pyrrole-5-carboxamide], the IC50 is below 10 µM.

Regarding `Cn1c(C(=O)Nc2ccccc2COc2ccc(CN3CCC4(CCNCC4)C3)cc2)cc2sccc21` [Example 41, N-[2-[[4-(2,8-diazaspiro[4.5]decan-2-ylmethyl)phenoxy]methyl]phenyl]-4-methyl-thieno[3,2-b]pyrrole-5-carboxamide], the IC50 was below 10 µM.

As for `COCc1cccc(NC(=O)c2cc3ccsc3n2C)c1` [Example 48, N-[3-(methoxymethyl)phenyl]-6-methyl-thieno[2,3-b]pyrrole-5-carboxamide], the IC50 was below 25 µM.

Turning to `COCc1cccc(NC(=O)c2cc3sccc3n2C)c1COc1ccc(OC2CCNCC2)cc1` [Example 43, N-[3-(methoxymethyl)-2-[[4-(4-piperidyloxy)phenoxy]methyl]phenyl]-4-methyl-thieno[3,2-b]pyrrole-5-carboxamide hydrochloride], the IC50 is below 10 µM.

As for `Cn1c(C(=O)Nc2ccccc2COc2ccc(OC3CCNCC3)cn2)cc2sccc21` [Example 56, 4-Methyl-N-[2-[[5-(4-piperidyloxy)-2-pyridyl]oxymethyl]phenyl]thieno[3,2-b]pyrrole-5-carboxamide hydrochloride], the IC50 was below 25 µM.

For `Cn1c(C(=O)Nc2ccccc2COc2ccc(N3CCNCC3)cc2)cc2sccc21` [Example 37, 4-methyl-N-[2-[(4-piperazin-1-ylphenoxy)methyl]phenyl]thieno[3,2-b]pyrrole-5-carboxamide], the IC50 is below 10 µM.

For the compound `COCc1cccc(NC(=O)c2cc3sccc3n2C)c1COc1ccc(OC2CCCNCC2)cc1` (stereo not shown) [Example 44, N-[2-[[4-(azepan-4-yloxy)phenoxy]methyl]-3-(methoxymethyl)phenyl]-4-methyl-thieno[3,2-b]pyrrole-5-carboxamide hydrochloride], the IC50 is below 10 µM.

Turning to `Cn1c(C(=O)Nc2ccccc2OCC2CCNCC2)cc2sccc21` [Example 57, 4-Methyl-N-[2-(4-piperidylmethoxy)phenyl]thieno[3,2-b]pyrrole-5-carboxamide hydrochloride], the IC50 was below 50 µM.

`Cn1c(C(=O)Nc2ccccc2COc2ccc(OC3CCNCC3)cc2)cc2ccsc21` [Example 67, 6-Methyl-N-[2-[[4-(4-piperidyloxy)phenoxy]methyl]phenyl]thieno[2,3-b]pyrrole-5-carboxamide]: the IC50 was below 10 µM.

Consider `Cn1c(C(=O)Nc2cccc(COc3ccc(O[C@H]4CC[C@H](N)CC4)cc3)c2)cc2sccc21` [Example 29, N-[3-[[4-(trans-4-aminocyclohexoxy)phenoxy]methyl]phenyl]-4-methyl-thieno[3,2-b]pyrrole-5-carboxamide], for which the IC50 was below 10 µM.

Regarding `CCn1c(C(=O)Nc2ccccc2COc2cccc(OC3CCNCC3)c2)cc2ccsc21` [Example 65, 6-Ethyl-N-[2-[[3-(4-piperidyloxy)phenoxy]methyl]phenyl]thieno[2,3-b]pyrrole-5-carboxamide], the IC50 was below 10 µM.

In the case of `Cn1c(C(=O)Nc2cccc(COc3ccncc3)c2)cc2sccc21` [Example 22, 4-methyl-N-[3-(4-pyridyloxymethyl)phenyl]thieno[3,2-b]pyrrole-5-carboxamide], the half-maximal inhibitory concentration (IC50) is below 10 µM.

Regarding `Cn1c(C(=O)Nc2ccccc2C(=O)Nc2ccc(OC3CCNCC3)cc2)cc2sccc21` [Example 36, 4-methyl-N-[2-[[4-(4-piperidyloxy)phenyl]carbamoyl]phenyl]thieno[3,2-b]pyrrole-5-carboxamide], the IC50 is below 10 µM.

Regarding `Cn1c(C(=O)Nc2ccccc2COc2ccc(OCC3CNC3)cc2)cc2sccc21` [Example 40, N-[2-[[4-(azetidin-3-ylmethoxy)phenoxy]methyl]phenyl]-4-methyl-thieno[3,2-b]pyrrole-5-carboxamide; 2,2,2-trifluoroacetic acid], the IC50 is below 10 µM.

As to `Cn1c(C(=O)Nc2cccc(COc3ccc(OC4CCNC4)cc3)c2)cc2sccc21` (stereo not shown) [Example 32, 4-methyl-N-[3-[(4-pyrrolidin-3-yloxyphenoxy)methyl]phenyl]thieno[3,2-b]pyrrole-5-carboxamide hydrochloride], the IC50 is below 10 µM.

As for `Cn1c(C(=O)Nc2ccccc2COc2ccc(OCC3CCNC3)cc2)cc2ccsc21` (stereo not shown) [Example 68, 6-Methyl-N-[2-[[4-(pyrrolidin-3-ylmethoxy)phenoxy]methyl]phenyl]thieno[2,3-b]pyrrole-5-carboxamide hydrochloride], the IC50 is below 10 µM.

On to `Cn1c(C(=O)Nc2ccccc2COc2ccc(OC3CCCNC3)cc2)cc2sccc21` (stereo not shown) [Example 27, 4-methyl-N-[2-[[4-(3-piperidyloxy)phenoxy]methyl]phenyl]thieno[3,2-b]pyrrole-5-carboxamide], for which the IC50 is below 10 µM.

Regarding `CSCc1cccc(NC(=O)c2cc3sccc3n2C)c1` [Example 46, 4-methyl-N-[3-(methylsulfanylmethyl)phenyl]thieno[3,2-b]pyrrole-5-carboxamide], the IC50 is below 10 µM.

On to `Cn1c(C(=O)Nc2cccc(COc3ccc(CNC(=N)N)cc3)c2)cc2sccc21` [Example 59, N-[3-[[4-(Guanidinomethyl)phenoxy]methyl]phenyl]-4-methyl-thieno[3,2-b]pyrrole-5-carboxamide; trifluoroacetic acid], for which the IC50 was below 10 µM.

Regarding `Cn1c(C(=O)Nc2cccc(COc3cccc(OC4CCNCC4)c3)c2)cc2sccc21` [Example 58, 4-Methyl-N-[3-[[3-(4-piperidyloxy)phenoxy]methyl]phenyl]thieno[3,2-b]pyrrole-5-carboxamide hydrochloride], the IC50 is below 10 µM.

Turning to `CNCCCOc1ccc(OCc2ccccc2NC(=O)c2cc3sccc3n2C)cc1` [Example 31, 4-methyl-N-[2-[[4-(3-methylaminopropoxy)phenoxy]methyl]phenyl]thieno[3,2-b]pyrrole-5-carboxamide hydrochloride], the IC50 was below 10 µM.

On to `Cn1c(C(=O)Nc2cccc(COc3ccc(OC4CCCNCC4)cc3)c2)cc2sccc21` (stereo not shown) [Example 33, N-[3-[[4-(azepan-4-yloxy)phenoxy]methyl]phenyl]-4-methyl-thieno[3,2-b]pyrrole-5-carboxamide], for which the IC50 was below 10 µM.

On to `Cn1c(C(=O)Nc2cccc(COc3ccc(O[C@@H]4C[C@H]5CC[C@@H](C4)N5)cc3)c2)cc2sccc21` [Example 25, N-[3-[[4-[[(1S,5R)-8-azabicyclo[3.2.1]octan-3-yl]oxy]phenoxy]methyl]phenyl]-4-methyl-thieno[3,2-b]pyrrole-5-carboxamide], for which the IC50 is below 10 µM.

Consider `CCn1c(C(=O)Nc2ccccc2COc2ccc(OC3CCNCC3)cc2)cc2ccsc21` [Example 66, 6-Ethyl-N-[2-[[4-(4-piperidyloxy)phenoxy]methyl]phenyl]thieno[2,3-b]pyrrole-5-carboxamide hydrochloride], for which the IC50 is below 10 µM.

For the compound `Cn1c(C(=O)Nc2ccccc2COc2ccc(CNC(=N)N)cc2)cc2sccc21` [Example 60, N-[2-[[4-(Guanidinomethyl)phenoxy]methyl]phenyl]-4-methyl-thieno[3,2-b]pyrrole-5-carboxamide; trifluoroacetic acid], the IC50 is below 10 µM.

Consider `Cn1c(C(=O)Nc2cccc(COc3ccc(OC4CCCNC4)cc3)c2)cc2sccc21` (stereo not shown) [Example 28, 4-methyl-N-[3-[[4-(3-piperidyloxy)phenoxy]methyl]phenyl]thieno[3,2-b]pyrrole-5-carboxamide], for which the IC50 is below 10 µM.

By IC50 is commonly meant the concentration that gives 50% inhibition.
